Here are results for 17 compounds from patent US9856279B2 (AGIOS PHARMACEUTICALS, INC, priority 2011, dated 2018).

A word on the IC50: it is the point on the concentration scale where inhibition reaches its midpoint.

Assay [1] concerns the target IDH1 R132H (Homo sapiens, UniProt O75874, R132H). Kind of assay: Assay for IDH1 R132H inhibitors (NADPH/aKG, resazurin detection). In kind it is biochemical. The note with it: enzyme assay of Example 12; read-out: IDH1R132H IC50. Summed up: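 Compound added to substrate mix (8 uM NADPH, 2 mM aKG), then enzyme mix (0.2 μg/ml IDH1 R132H); 50 min RT in 20 mM Tris pH 7.5, 150 mM NaCl, 10 mM MgCl2, 0.03% BSA. Resazurin detection mix (30 μM) 5 min RT; resorufin fluorescence Ex544/Em590.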
On the technique in general: The colour change of resazurin is a common sign of viable cells or microbes.

The subject of assay [2] is HT1080 cells. Kind of assay: Cellular assay for IDH1m inhibitors: inhibition of 2-HG production (LC-MS, 48 hours) in HT1080 cells. The note with it: Homo sapiens, HT-1080; inhibition of 2-HG production, HT1080 cells; read-out: HT1080 IC50. Type of assay: cell-based. Summed up: (§1)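 Read-out: 2-HG in culture medium by LC-MS after 48 h compound exposure; IC50 = 50% reduction vs DMSO control. Cells plated 5000/well in DMEM/10% FBS, 37 °C, 5% CO2; DMSO 0.2% final.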

Assay [3] concerns U87MG cells. Kind of assay: Cellular assay for IDH1m inhibitors: inhibition of 2-HG production (LC-MS, 48 hours) in U87MG cells. Type of assay: cell-based. The note with it: Homo sapiens, U-87 MG, inhibition of 2-HG production, U87R132H cells; read-out: U87R132H IC50. In short, it runs like this:
as §1

IDH1 R132H, sequence (O75874 whole entry R132H): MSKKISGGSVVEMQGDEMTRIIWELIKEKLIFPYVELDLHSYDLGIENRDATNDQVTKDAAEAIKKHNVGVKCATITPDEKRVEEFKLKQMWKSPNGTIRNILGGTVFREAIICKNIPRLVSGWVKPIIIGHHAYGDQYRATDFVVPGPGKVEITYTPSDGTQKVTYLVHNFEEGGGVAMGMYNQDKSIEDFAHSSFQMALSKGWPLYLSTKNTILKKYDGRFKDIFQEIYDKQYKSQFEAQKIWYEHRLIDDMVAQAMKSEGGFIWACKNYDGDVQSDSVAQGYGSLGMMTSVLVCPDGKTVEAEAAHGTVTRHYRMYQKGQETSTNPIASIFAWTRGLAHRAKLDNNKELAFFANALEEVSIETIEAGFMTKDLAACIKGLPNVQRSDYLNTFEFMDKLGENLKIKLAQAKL

Regarding `CCS(=O)(=O)Nc1cccc(-c2cc(C#N)c(N3CCN(C(=O)CCOC)[C@H](C)C3)nc2C2CC2)c1` [Compound 448, (R)—N-(3-(5-cyano-2-cyclopropyl-6-(4-(3-methoxypropanoyl)-3-methylpiperazin-1-yl)pyridin-3-yl)phenyl)ethanesulfonamide], the IC50 was below 500 nM in assay [1], 1000 to 10000 nM in assay [2] and 1000 to 10000 nM in assay [3].
As to `C=Cc1cc(-c2cc(C#N)c(N3CCN(C(=O)CCOC)[C@H](C4CC4)C3)nc2C2CC2)c2cccnc2n1` [Compound 645, (R)-6-cyclopropyl-2-(3-cyclopropyl-4-(3-methoxypropanoyl)piperazin-1-yl)-5-(2-vinyl-1,8-naphthyridin-4-yl)nicotinonitrile], the IC50 in assay [1], in assay [2] and in assay [3] was below 500 nM throughout.
Regarding `COCCC(=O)N1CCN(c2nc(C3CC3)c(-c3ccc(CNS(C)(=O)=O)cc3)c(C)c2C#N)C[C@H]1C` [Compound 330, (R)—N-(4-{5-cyano-2-cyclopropyl-6-[4-(3-methoxy-propionyl)-3-methyl-piperazin-1-yl]-4-methyl-pyridin-3-yl}-benzyl)-methanesulfonamide], the IC50 in assay [1], in assay [2] and in assay [3] was below 500 nM in each case.
Take `COCCC(=O)N1CCN(c2nc(C3CC3)c(-c3ccc4ncccc4c3)cc2C#N)C[C@H]1C` [Compound 353, (R)-6-cyclopropyl-2-[4-(3-methoxy-propionyl)-3-methyl-piperazin-1-yl]-5-quinolin-6-yl-nicotinonitrile]: the IC50 in assay [1] is below 500 nM; in assay [2], 500 to 1000 nM; in assay [3], 500 to 1000 nM.
On to `C=Cc1cc(-c2cc(C#N)c(N3CCN(C(=O)CCO)[C@H](C4CC4)C3)nc2C2CC2)cnn1` [Compound 686, (R)-6-cyclopropyl-2-(3-cyclopropyl-4-(3-hydroxypropanoyl)piperazin-1-yl)-5-(6-vinylpyridazin-4-yl)nicotinonitrile], for which the IC50 in assay [1], in assay [2] and in assay [3] was below 500 nM each time.
For `COCCC(=O)N1CCN(c2nc(C3CC3)c(OC(C)c3ccncc3)cc2C#N)C[C@H]1C` (stereo partly drawn) [Compound 388, 6-cyclopropyl-2-((R)-4-(3-methoxypropanoyl)-3-methylpiperazin-1-yl)-5-(1-(pyridin-4-yl)ethoxy)nicotinonitrile], the IC50 is below 500 nM in assay [1], 1000 to 10000 nM in assay [2] and 500 to 1000 nM in assay [3].
Taken in the same sequence, the figures for `C=Cc1ccc2ccc(-c3cc(C#N)c(N4CCN(C(=O)C5CC5)[C@H](C5CC5)C4)nc3C3CC3)cc2n1` [Compound 709, (R)-2-(4-(cyclopropanecarbonyl)-3-cyclopropylpiperazin-1-yl)-6-cyclopropyl-5-(2-vinylquinolin-7-yl) nicotinonitrile] were below 500 nM, below 500 nM and below 500 nM.
For the compound `C=Cc1cc(-c2cc(C#N)c(N3CCN(C(=O)CC4CCCO4)[C@H](C4CC4)C3)nc2C2CC2)ccn1` (stereo partly drawn) [Compound 801, 2-cyclopropyl-6-((3R)-3-cyclopropyl-4-(2-(tetrahydrofuran-2-yl)acetyl)piperazin-1-yl)-2′-vinyl-[3,4′-bipyridine]-5-carbonitrile], the IC50 in assay [1], in assay [2] and in assay [3] was below 500 nM each time.
For `C=Cc1cc(-c2c(C3CC3)nc(N3CCN(C(=O)C[C@@H]4CCO4)[C@H](C4CC4)C3)c(C#N)c2C)ccn1` [Compound 761, 2-cyclopropyl-6-((R)-3-cyclopropyl-4-(2-((S)-oxetan-2-yl)acetyl)piperazin-1-yl)-4-methyl-2′-vinyl-3,4′-bipyridine-5-carbonitrile], the IC50 in assay [1], in assay [2] and in assay [3] was below 500 nM throughout.
As for `C=Cc1cc(-c2c(C3CC3)nc(N3CCN(C(=O)CCCOC)[C@H](C(C)C)C3)c(C#N)c2C)ccn1` [Compound 788, (R)-2-cyclopropyl-6-(3-isopropyl-4-(4-methoxybutanoyl)piperazin-1-yl)-4-methyl-2′-vinyl-3,4′-bipyridine-5-carbonitrile], the IC50 in assay [1], in assay [2] and in assay [3] was below 500 nM each time.
Turning to `C=Cc1cc(Nc2cc(C#N)c(N3CCN(C(=O)CCO)[C@H](C(C)C)C3)nc2C2CC2)ccn1` [Compound 754, (R)-6-cyclopropyl-2-(4-(3-hydroxypropanoyl)-3-isopropylpiperazin-1-yl)-5-(2-vinylpyridin-4-ylamino)nicotinonitrile], the IC50 in assay [1], in assay [2] and in assay [3] was below 500 nM in each case.
As for `COCCC(=O)N1CCN(c2nc(C3CC3)c(OCc3cccc(OC)c3)cc2C#N)C[C@H]1C` [Compound 280, (R)-6-cyclopropyl-5-(3-methoxybenzyloxy)-2-(4-(3-methoxypropanoyl)-3-methylpiperazin-1-yl)nicotinonitrile], the IC50 in assay [1] is below 500 nM; in assay [2], 1000 to 10000 nM; in assay [3], 1000 to 10000 nM.
As to `COCCC(=O)N1CCN(c2nc(C3CC3)c(-c3ccc(NC(C)=O)cc3)cc2C#N)C[C@H]1C` [Compound 412, (R)—N-(4-(5-cyano-2-cyclopropyl-6-(4-(3-methoxypropanoyl)-3-methylpiperazin-1-yl)pyridin-3-yl)phenyl)acetamide], the IC50 in assay [1] is below 500 nM; in assay [2], 1000 to 10000 nM; in assay [3] it was 500 to 1000 nM.
Consider `C=Cc1cc(-c2cc(C#N)c(N3CCN(C(=O)CC[C@@H]4CCO4)[C@H](C4CC4)C3)nc2C2CC2)ccn1` [Compound 794, 2-cyclopropyl-6-((R)-3-cyclopropyl-4-(3-((R)-oxetan-2-yl)propanoyl)piperazin-1-yl)-2′-vinyl-[3,4′-bipyridine]-5-carbonitrile], for which the IC50 in assay [1], in assay [2] and in assay [3] was below 500 nM throughout.
Regarding `C=Cc1nccc(-c2cc(C#N)c(N3CCN(C(=O)C4CC4)[C@H](C4CC4)C3)nc2C2CC2)n1` [Compound 496, (R)-2-(4-(cyclopropanecarbonyl)-3-cyclopropylpiperazin-1-yl)-6-cyclopropyl-5-(2-vinylpyrimidin-4-yl)nicotinonitrile], the values for the concentration for half-maximal inhibition (IC50) in assay [1], in assay [2] and in assay [3] were 500 to 1000 nM, 500 to 1000 nM and below 500 nM, respectively.
In the case of `N#Cc1cc(Nc2ccnc(Cl)c2)c(C2CC2)nc1N1CCN(C(=O)C[C@H]2CCO2)[C@H](C2CC2)C1` [Compound 748, 5-(2-chloropyridin-4-ylamino)-6-cyclopropyl-2-((R)-3-cyclopropyl-4-(2-((R)-oxetan-2-yl)acetyl)piperazin-1-yl)nicotinonitrile], the IC50 in assay [1], in assay [2] and in assay [3] was below 500 nM throughout.
As for `C=Cc1cc(-c2c(C3CC3)nc(N3CCN(C(=O)CCCO)[C@H](C4CC4)C3)c(C#N)c2C)ccn1` [Compound 770, (R)-2-cyclopropyl-6-(3-cyclopropyl-4-(4-hydroxybutanoyl)piperazin-1-yl)-4-methyl-2′-vinyl-3,4′-bipyridine-5-carbonitrile], the IC50 in assay [1], in assay [2] and in assay [3] was below 500 nM each time.
